Key:
Assay type in all cases: in vivo
[1] = test system: galium (catchweed bedstraw, Galium aparine); assay: Test C postemergence, galium; conditions: for Galium plant response rating: visual injury, 0 to 100 scale (0 no effect, 100 complete control); for Plant response rating (0 to 100 scale), Galium: 0 is no effect, 100 is complete control
[2] = test system: wheat (Triticum aestivum); assay: Test C postemergence, wheat; conditions: visual injury, 0 to 100 scale (0 no effect, 100 complete control)
In short: (§1)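 Plants grown in a sand and loam soil blend received the formulated test chemicals either as a preemergence soil-directed spray or postemergence at 2 to 10 cm height. After 10 or 12 greenhouse days, injury was assessed visually, with 100 meaning complete control.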

[3] = test system: oat, wild (wild oat, Avena fatua); assay: Test C postemergence, wild oat; conditions: for Oat, Wild plant response rating: visual injury, 0 to 100 scale (0 no effect, 100 complete control); for Plant response rating (0 to 100 scale), Oat, Wild: 0 is no effect, 100 is complete control
[4] = test system: ryegrass, Italian (Italian ryegrass, Lolium multiflorum); assay: Test C preemergence, Italian ryegrass; conditions: 0 is no effect, 100 is complete control
In short: as §1

[5] = test system: blackgrass (Alopecurus myosuroides); assay: Test C postemergence, blackgrass; conditions: visual injury, 0 to 100 scale (0 no effect, 100 complete control)
In short: as §1

[6] = test system: ducksalad (Heteranthera limosa); assay: Test D flooded paddy test, ducksalad; parameters: key: 0 = no effect, 100 = complete control; conditions: 250 g ai/ha, Flood; applied to paddy water at 2-leaf stage; visual rating after 13 days; scale 0 (no effect) to 100 (complete control)
In short: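 Plants were grown to the 2-leaf stage, then pots were flooded to 3 cm above soil and compounds applied directly into the paddy water, with that depth held throughout. After 13 days in a greenhouse, injury was visually rated against untreated controls on a 0–100 scale (0 no effect, 100 complete control).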

[7] = test system: oat, wild (wild oat, Avena fatua); assay: Test C preemergence, wild oat; conditions: 0 is no effect, 100 is complete control
In short: as §1

[8] = test system: goosegrass (Eleusine indica); assay: Test C postemergence, goosegrass; conditions: for Goosegrass plant response rating: visual injury, 0 to 100 scale (0 no effect, 100 complete control); for Plant response rating (0 to 100 scale), Goosegrass: 0 is no effect, 100 is complete control
In short: as §1

Structure (SMILES)	Galium plant response rating ([1]; 31 g ai/ha Postemergence)	Plant response rating (0 to 100 scale), Galium ([1]; 125 g ai/ha Postemergence)	Wheat plant response rating ([2]; 31 g ai/ha Postemergence)	Wheat plant response rating ([2]; 125 g ai/ha Postemergence)	Oat, Wild plant response rating ([3]; 31 g ai/ha Postemergence)	Plant response rating (0 to 100 scale), Oat, Wild ([3]; 125 g ai/ha Postemergence)	Plant response rating (0 to 100 scale), Ryegrass, Italian ([4]; 31 g ai/ha Preemergence)	Plant response rating (0 to 100 scale), Ryegrass, Italian ([4]; 125 g ai/ha Preemergence)	Blackgrass plant response rating ([5]; 31 g ai/ha Postemergence)	Plant response rating, Ducksalad [6]	Plant response rating (0 to 100 scale), Oat, Wild ([7]; 31 g ai/ha Preemergence)	Plant response rating (0 to 100 scale), Oat, Wild ([7]; 125 g ai/ha Preemergence)	Goosegrass plant response rating ([8]; 31 g ai/ha Postemergence)	Plant response rating (0 to 100 scale), Goosegrass ([8]; 125 g ai/ha Postemergence)	Galium plant response rating ([1]; 125 g ai/ha Postemergence)	Oat, Wild plant response rating ([3]; 125 g ai/ha Postemergence)	Blackgrass plant response rating ([5]; 125 g ai/ha Postemergence)	Goosegrass plant response rating ([8]; 125 g ai/ha Postemergence)
Cc1cc(Cl)c(N(COC(=O)C(C)(C)C)S(=O)(=O)C(F)(F)F)cc1N1CCC(OC2CC2)C1=O (centres unmarked) [Compound 33]	100	100	50	70	30	70	20	100	0	80	10	50	60	90				
Cc1cc(C)c(N2CCC(OC3COC3)C2=O)cc1NS(=O)(=O)C(F)(F)F (centres unmarked) [Compound 34]	100	100	70	80	30	70	40	80	30	65	30	80	30	80				
Cc1c(NS(=O)(=O)C(F)(F)F)cc(N2CCCC(OC3CC3)C2=O)c(C)c1F (centres unmarked) [Compound 35]	70	100	60	60	40	70	100	100	50	55	20	90	70	90				
Cc1c(N2CCCC(OC3CC3)C2=O)cc(N(COC(=O)C(C)(C)C)S(=O)(=O)C(F)(F)F)c(C)c1F (centres unmarked) [Compound 37]	60	90	10	60	20	70	30	70	0	70	20	20	0	90				
CC(=O)N(c1cc(N2CCC(OC3CC3)C2=O)c(C)cc1Cl)S(=O)(=O)C(F)(F)F (centres unmarked) [Compound 38]	90	100	60	60	50	60	80	100	40	65	30	100	30	90				
Cc1c(N2CCCC(OC3CCC3)C2=O)cc(N(COC(=O)C(C)(C)C)S(=O)(=O)C(F)(F)F)c(C)c1F (centres unmarked) [Compound 39]	80	90	0	60	0	20	0	60	0	55	0	0	0	30				
COC(=O)N(c1cc(N2CCC(OC3CC3)C2=O)c(C)cc1Cl)S(=O)(=O)C(F)(F)F (centres unmarked) [Compound 40]	80	100	60	70	50	80	90	100	10	70	10	90	50	90				
Cc1cc(C)c(N2CCC(OCC3CC3(F)F)C2=O)cc1NS(=O)(=O)C(F)(F)F (centres unmarked) [Compound 41]	100		60	60	30		100	100	40	60	60	100	90		100	30	60	90
Cc1cc(C)c(N2CCC(OCC3CCCO3)C2=O)cc1NS(=O)(=O)C(F)(F)F (centres unmarked) [Compound 42]	50		0	80	0		20	90	0	95	0	30	40		90	40	50	90
Cc1cc(C)c(N2CCC(OCC3CCC3)C2=O)cc1NS(=O)(=O)C(F)(F)F (centres unmarked) [Compound 43]	70		30	70	10		80	100	0	95	0	50	20		90	20	50	90
Cc1c(NS(=O)(=O)C(F)(F)F)cc(N2CCC(OC3CCC3)C2=O)c(C)c1C (centres unmarked) [Compound 45]	100		20	60	10		50	90	10	85	80	90	70		100	30	40	90
Cc1c(NS(=O)(=O)C(F)(F)F)cc(N2CCC(OC3CC3)C2=O)c(C)c1C (centres unmarked) [Compound 47]	80		80	80	10		50	90	40	95	80	100	50		90	60	70	90

— patent US20240158348A1, “HERBICIDAL CYCLIC AMIDES N-SUBSTITUTED WITH A HALOALKYLSULFONYLANILIDE GROUP” (FMC Corporation, priority 2021, published 2024)
